Measurements: patent publication US9328088B2, “Luminescent probes for biological labeling and imaging, and process for preparing the same” (CENTRE NATIONAL DE LA RECHERCHE SCIENTIFIQUE, priority 2011, dated 2016)
Where “and” joins values, the source holds several entries; their conditions need not be identical. Equal entries are not always repeated.

Key:
Type in all cases: physicochemical
[1] = Emission properties: luminescence half-life τ and luminescence quantum yield φ in H2O and D2O; settings: for Emission τ (luminescence half-life): error estimated ±5%; for Emission φ (luminescence quantum yield): error estimated ±15%
Description: The complexes according to the invention have varied applications, depending on the nature of the substituents of the pyridyl group of the ligand.
By way of example, all of the absorption and emission properties of the terbium complexes synthesized from ligands (I-1) to (I-4) in accordance with the invention are summarized in Table 1 below:
The parameters φ and τ represent, respectively, the luminescence quantum yields and the luminescence half-lives. They may be measured in water and in D2O.

[2] = Absorption properties of the terbium complexes; settings: 0.01M TRIS/HCl buffer at pH = 7.0
Description: By way of example, all of the absorption and emission properties of the terbium complexes synthesized from ligands (I-1) to (I-4) in accordance with the invention are summarized in Table 1 below: […]

[3] = Stability of the terbium complexes in various buffers (luminescence half-life τ)
Description: By way of example, the stability of the terbium complexes synthesized from ligands (I-1) to (I-4) in accordance with the invention in various buffers is given in Table 2 below. By way of comparison, Table 2 also gives the stability of a terbium complex TbL4 of the prior art corresponding to the following formula: […]

SMILES | quantum yields [1] | Emission τ (luminescence half-life) ([1]; D2O) [s] | Emission φ (luminescence quantum yield) ([1]; D2O) [%] | Emission τ (luminescence half-life) ([1]; H2O) [s] | Emission φ (luminescence quantum yield) ([1]; H2O) [%] | Absorption λabs [2] | τ ([3]; H2O, estimated error ±5%) [ms] | τ ([3]; Phosphate 0.1M, pH = 7.0) [ms] | τ ([3]; Tris 50 mM-Serum 50%, pH = 7.0) [ms] | τ ([3]; Tris 0.1M, pH = 7.0) [ms] | τ ([3]; Tris 0.1M-EDTA 10 mM, pH = 7.0) [ms] | τ ([3]; Tris 0.1M-KF 400 mM, pH = 7.0) [ms]
CCOP(=O)([O-])CN(CC(=O)[O-])Cc1ccn(-c2cc(C#Cc3cc(OCCOC)c(C(=O)NCCCC(=O)[O-])cc3OCCOC)cc(-n3ccc(CN(CC(=O)[O-])CP(=O)([O-])OCC)n3)n2)n1.[Na+].[Na+].[Na+].[Na+].[Na+].[Tb+3] [Tb(I-5)] | virtually quantitative | 0.0031 | 96 | 0.0026 | 88 | 283 nm and 328 nm | 2.6 | 2.6 | 2.5 | 2.6 | 2.6 | 2.5
CCOP(=O)([O-])CN(CC(=O)[O-])Cc1ccn(-c2cc(C#Cc3cc(OCCOC)c(C#CCCCCC(=O)[O-])cc3OCCOC)cc(-n3ccc(CN(CC(=O)[O-])CP(=O)([O-])OCC)n3)n2)n1.[Na+].[Na+].[Na+].[Na+].[Na+].[Tb+3] [Tb(I-6)] |  | 0.0032 | 35 | 0.0026 | 26 | 275 nm and 328 nm | 2.6 | 2.6 | 2.3 | 2.4 | 2.5 | 2.3
CCOP(=O)([O-])CN(Cc1ccn(-c2cc(C#Cc3cc(OCCOC)c(C#CCCCCC(=O)[O-])cc3OCCOC)cc(-n3ccc(CN(CP(=O)([O-])OCC)CP(=O)([O-])OCC)n3)n2)n1)CP(=O)([O-])OCC.[Na+].[Na+].[Na+].[Na+].[Na+].[Tb+3] [Tb(I-8)] |  | 0.0035 | 30 | 0.0032 | 26 | 272 nm and 327 nm | 3.2 | 3.2 | 3.0 | 3.1 | 3.1 | 3.0
